# Assay results reported in patent US20220089710A1, “Method of Treating Signs and Symptoms of Osteoarthritis” (Pfizer Inc., priority 2019, published 2022).
# Read-outs that look alike come from different tables or passages of the source.
# Key:
# [1] = test system: patients with moderate to severe OA of the hip or knee; assay: Example 1: adjudicated joint safety events (RPOA, TJR); assay type: in vivo, human
# Method: Investigators performed musculoskeletal examinations at each study visit. Investigators evaluated patients reporting increased severe or persistent pain via eDiary lasting […] to determine if additional follow-up was needed. Post-baseline x-rays (scheduled or for cause) were assessed by the central reader for possible or probable RPOA, subchondral insufficiency fracture, primary osteonecrosis, or pathologic fracture. If warranted, magnetic resonance imaging scans were performed and/or patients were referred to an orthopedic surgeon. All cases of possible or probable joint safety events or cases of TJR for any reason were adjudicated by a blinded Adjudication Committee consisting of orthopedic surgery, rheumatology, orthopedic pathology, and musculoskeletal radiology experts.
# [2] = test system: patients with moderate to severe OA of the hip or knee; assay: Example 1: randomized, double-blind, placebo-controlled dose-titration study of SC tanezumab (16-week treatment), efficacy: WOMAC Pain, WOMAC Physical Function, PGA-OA, average daily index joint pain; assay type: in vivo, human; conditions: for PGA-OA: Diff of LS Means vs placebo / PGA-OA: LS Mean change from Baseline / WOMAC Pain: Diff of LS Means vs placebo / WOMAC Pain: LS Mean change from Baseline / WOMAC Physical Function: Diff of LS Means vs placebo / WOMAC Physical Function: LS Mean change from Baseline / proportion of patients with ≥50% reduction from baseline in WOMAC Pain subscale: Week 16
# Method: All patients provided written informed consent before participating. The study was conducted in compliance with the Declaration of Helsinki and all International Conference on Harmonisation Good Clinical Practice guidelines.
# The co-primary efficacy endpoints were change from baseline to week 16 in WOMAC Pain subscale, WOMAC Physical Function subscale, and PGA-OA (Theiler et al., Osteoarthritis Cartilage. 2002; 10(6):479-481; Stengaard-Pederson et al., Rheumatology (Oxford). 2004; 43(5):592-595). WOMAC Pain and WOMAC Physical Function subscales measured symptoms within the last 48 hours; both used an 11-point numeric rating scale where higher scores indicated higher levels of pain or worse function. For PGA-OA, patients answered the question “Considering all the ways your osteoarthritis in your hip/knee affects you, how are you doing today?” on a scale from 1=“very good” to 5=“very poor.”
# A key secondary efficacy endpoint was the WOMAC Pain […], responder rate at week 16. Other secondary efficacy endpoints were WOMAC Pain responder rates (≥30%, ≤70%, and ≤90%) at week 16 and patient-reported rescue medication use during weeks 2, 4, 8, 12, and 16.
# Individual patient transitions in WOMAC Pain response categories (non-response defined as <30% reduction in WOMAC Pain; moderate response as ≥30%, but <50% reduction in WOMAC Pain; and substantial response as […], reduction from baseline in WOMAC Pain) between adjacent time points through the study (from week 4 to week 8, from week 8 to week 12, and from week 12 to week 16), were investigated using contingency tables. These analyses were conducted post hoc. Consistent non-responders were those patients with less than a 30% reduction from baseline in WOMAC Pain at two consecutive time points. Consistent moderate responders were those patients with at least a 30% but less than 50% reduction from baseline in WOMAC Pain at two consecutive time points. Consistent substantial responders were those patients who maintained at least a 50% reduction from baseline in WOMAC Pain at two consecutive time points.
# Co-primary endpoints were analyzed in the intent-to-treat population (all patients who received ≥1 study medication dose) using an analysis of covariance model, with terms for baseline score, baseline patient diary average pain, index joint, Kellgren-Lawrence grade, and treatment group, and study site as a random effect. Missing data were handled with a multiple imputation strategy dependent on the reason for discontinuation.
# Comparisons for other secondary endpoints were unadjusted. […] Safety assessments were summarized by treatment group as percentages of the treatment group population.
# [3] = test system: patients with osteoarthritis (OA) of the knee or hip; conditions: for PGA-OA: LS Mean (SE) change from Baseline / PGA-OA: LS Mean Difference vs. NSAID (SE) / WOMAC Pain ≥30% reduction: % of patients / WOMAC Pain ≥30% reduction: number of patients / WOMAC Pain ≥70% reduction: % of patients / WOMAC Pain ≥70% reduction: number of patients / WOMAC Pain ≥90% reduction: % of patients / WOMAC Pain ≥90% reduction: number of patients / WOMAC Pain: LS Mean Difference vs. NSAID (SE) / WOMAC Physical Function: LS Mean (SE) change from Baseline / WOMAC Physical Function: LS Mean Difference vs. NSAID (SE) / WOMAC Pain: LS Mean (SE) change from Baseline / WOMAC Pain ≥50% reduction: % of patients / WOMAC Pain ≥50% reduction: number of patients: Week 16; for PGA-OA: LS Mean Difference vs. NSAID / PGA-OA: LS Mean change from Baseline / WOMAC Pain: LS Mean Difference vs. NSAID / WOMAC Pain: LS Mean change from Baseline / WOMAC Physical Function: LS Mean Difference vs. NSAID / WOMAC Physical Function: LS Mean change from Baseline: Week 56;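 as to all read-outs here: SC doses every 8 weeks plus twice-daily oral study drug to Week 56, efficacy assessed in all randomized patients given at least one SC dose, by assigned arm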
# Method: Patients received a total of seven SC injections, each separated by 8 weeks and daily oral (PO) study medication BID through Week 56.
# The Intent-to-Treat (ITT) Population included all patients who were randomized and received at least one dose of SC study drug. This analysis set was primary for all efficacy endpoints, which were analyzed according to randomization assignment. The Safety Population included all patients who received at least one dose of SC study treatment. This analysis set was primary for all safety endpoints, which were analyzed according to treatment received.
# [4] = test system: patients with moderate to severe OA of the hip or knee; assay: Example 1: safety assessments (adverse events, neurological assessments); assay type: in vivo, human; conditions: SC 2.5 mg and 2.5/5 mg regimens
# Excerpt: Safety assessments included: adverse event (AE) reporting; laboratory testing; 12-lead electrocardiogram; sitting vital signs; orthostatic blood pressure assessments; physical examinations; musculoskeletal examinations; neurological examinations reported using the Neuropathy Impairment Score (Dyck et al., Neurology. 1995; 45(6):1115-1121); Survey of Autonomic Symptoms scores (Zilliox et al., Neurology. 2011; 76(12):1099-1105); adjudication of joint safety events including total joint replacements (TJRs); and anti-drug antibody assessments. AEs were coded using MedDRA v21.0. AE severity and relationship to study treatment were assessed by the investigator.
# Patients meeting protocol-specified criteria were further evaluated for peripheral neuropathy and/or sympathetic autonomic neuropathy. Neurological examinations were conducted at all clinic visits by investigators or designated physicians who received protocol-required training, and findings were recorded using the Neuropathy Impairment Score (Dyck et al).
# [5] = both tanezumab regimens pooled (n=464)
substance,measurement,setting,value
tanezumab: humanized immunoglobulin G Type 2 (IgG2) monoclonal antibody directed against human nerve growth factor (NGF); SEQ ID NOs: 9 or 11 and 10,events adjudicated as RPOA (types 1 and 2): % of group,[1]; 2.5 mg group,2.2%
same,events adjudicated as RPOA (types 1 and 2): % of group,[1]; 2.5/5 mg group,0.4%
same,adjudicated RPOA type 1 (accelerated joint space narrowing): n,[1]; both tanezumab regimens pooled,4
same,adjudicated RPOA type 2 (damage or deterioration of the joint): n,[1]; both tanezumab regimens pooled,2
same,tanezumab-treated patients with TJRs and adjudicated RPOA,[1]; both tanezumab regimens pooled,2
same,adjudicated RPOA (type 1 or 2): % of tanezumab-treated patients,[1]; [5],1.3%
same,adjudicated RPOA (type 1 or 2): number of tanezumab-treated patients,[1]; [5],6
same,PGA-OA: Diff of LS Means vs placebo,[2]; 2.5 mg SC,−0.22
same,PGA-OA: LS Mean change from Baseline,[2]; 2.5 mg SC,−0.87
same,WOMAC Pain: Diff of LS Means vs placebo,[2]; 2.5 mg SC,−0.60
same,WOMAC Pain: LS Mean change from Baseline,[2]; 2.5 mg SC,−3.23
same,WOMAC Physical Function: Diff of LS Means vs placebo,[2]; 2.5 mg SC,−0.66
same,WOMAC Physical Function: LS Mean change from Baseline,[2]; 2.5 mg SC,−3.22
same,proportion of patients with ≥50% reduction from baseline in WOMAC Pain subscale,[2]; 2.5 mg SC,54.5%
same,week 8 non-responders (<30% reduction in WOMAC Pain) transitioning to a moderate response at week 12,[2]; 2.5 mg group (10/88),11.4%
same,week 8 non-responders (<30% reduction in WOMAC Pain) transitioning to a substantial response at week 12,[2]; 2.5 mg group (14/88),15.9%
same,patients maintaining a moderate or substantial response from week 8 to week 12,[2]; 2.5 mg group (138/231),59.7%
same,PGA-OA: Diff of LS Means vs placebo,[2]; 2.5/5 mg SC,−0.25
same,PGA-OA: LS Mean change from Baseline,[2]; 2.5/5 mg SC,−0.90
same,WOMAC Pain: Diff of LS Means vs placebo,[2]; 2.5/5 mg SC,−0.73
same,WOMAC Pain: LS Mean change from Baseline,[2]; 2.5/5 mg SC,−3.37
same,WOMAC Physical Function: Diff of LS Means vs placebo,[2]; 2.5/5 mg SC,−0.89
same,WOMAC Physical Function: LS Mean change from Baseline,[2]; 2.5/5 mg SC,−3.45
same,proportion of patients with ≥50% reduction from baseline in WOMAC Pain subscale,[2]; 2.5/5 mg SC,57.1%
same,week 8 non-responders (<30% reduction in WOMAC Pain) transitioning to a substantial response at week 12,[2]; 2.5/5 mg group (17/90),18.9%
same,week 8 non-responders (<30% reduction in WOMAC Pain) transitioning to a moderate response at week 12,[2]; 2.5/5 mg group (20/90),22.2%
same,patients maintaining a moderate or substantial response from week 8 to week 12,[2]; 2.5/5 mg group (138/233),59.2%
same,PGA-OA: LS Mean (SE) change from Baseline,[3]; 2.5 mg SC,−0.96 (0.04)
same,PGA-OA: LS Mean Difference vs. NSAID (SE),[3]; 2.5 mg SC,−0.02 (0.04)
same,WOMAC Pain ≥30% reduction: % of patients,[3]; 2.5 mg SC,71.8%
same,WOMAC Pain ≥30% reduction: number of patients,[3]; 2.5 mg SC,718
same,WOMAC Pain ≥70% reduction: % of patients,[3]; 2.5 mg SC,28.9%
same,WOMAC Pain ≥70% reduction: number of patients,[3]; 2.5 mg SC,289
same,WOMAC Pain ≥90% reduction: % of patients,[3]; 2.5 mg SC,10.3%
same,WOMAC Pain ≥90% reduction: number of patients,[3]; 2.5 mg SC,103
same,WOMAC Pain: LS Mean Difference vs. NSAID (SE),[3]; 2.5 mg SC,−0.15 (0.11)
same,WOMAC Physical Function: LS Mean (SE) change from Baseline,[3]; 2.5 mg SC,−3.27 (0.11)
same,WOMAC Physical Function: LS Mean Difference vs. NSAID (SE),[3]; 2.5 mg SC,−0.19 (0.11)
same,WOMAC Pain: LS Mean (SE) change from Baseline,"[3]; 2.5 mg SC, ITT, multiple imputation",−3.22 (0.11)
same,WOMAC Pain ≥50% reduction: % of patients,"[3]; 2.5 mg SC, mixed BOCF/LOCF",54.9%
same,WOMAC Pain ≥50% reduction: number of patients,"[3]; 2.5 mg SC, mixed BOCF/LOCF",549
same,PGA-OA: LS Mean Difference vs. NSAID,[3]; 2.5 mg SC,0.01
same,PGA-OA: LS Mean change from Baseline,[3]; 2.5 mg SC,−0.65
same,WOMAC Pain: LS Mean Difference vs. NSAID,[3]; 2.5 mg SC,−0.02
same,WOMAC Pain: LS Mean change from Baseline,[3]; 2.5 mg SC,−2.44
same,WOMAC Physical Function: LS Mean Difference vs. NSAID,[3]; 2.5 mg SC,−0.05
same,WOMAC Physical Function: LS Mean change from Baseline,[3]; 2.5 mg SC,−2.45
same,PGA-OA: LS Mean (SE) change from Baseline,[3]; 5 mg SC,−0.97 (0.04)
same,PGA-OA: LS Mean Difference vs. NSAID (SE),[3]; 5 mg SC,−0.04 (0.04)
same,WOMAC Pain ≥30% reduction: % of patients,[3]; 5 mg SC,72.9%
same,WOMAC Pain ≥30% reduction: number of patients,[3]; 5 mg SC,725
same,WOMAC Pain ≥50% reduction: % of patients,[3]; 5 mg SC,56.5%
same,WOMAC Pain ≥50% reduction: number of patients,[3]; 5 mg SC,562
same,WOMAC Pain ≥70% reduction: % of patients,[3]; 5 mg SC,35.0%
same,WOMAC Pain ≥70% reduction: number of patients,[3]; 5 mg SC,348
same,WOMAC Pain ≥90% reduction: % of patients,[3]; 5 mg SC,12.7%
same,WOMAC Pain ≥90% reduction: number of patients,[3]; 5 mg SC,126
same,WOMAC Pain: LS Mean (SE) change from Baseline,[3]; 5 mg SC,−3.33 (0.11)
same,WOMAC Pain: LS Mean Difference vs. NSAID (SE),[3]; 5 mg SC,−0.26 (0.11)
same,WOMAC Physical Function: LS Mean (SE) change from Baseline,[3]; 5 mg SC,−3.39 (0.11)
same,WOMAC Physical Function: LS Mean Difference vs. NSAID (SE),[3]; 5 mg SC,−0.31 (0.10)
same,PGA-OA: LS Mean Difference vs. NSAID,[3]; 5 mg SC,0.06
same,PGA-OA: LS Mean change from Baseline,[3]; 5 mg SC,−0.60
same,WOMAC Pain: LS Mean Difference vs. NSAID,[3]; 5 mg SC,0.05
same,WOMAC Pain: LS Mean change from Baseline,[3]; 5 mg SC,−2.37
same,WOMAC Physical Function: LS Mean Difference vs. NSAID,[3]; 5 mg SC,0.05
same,WOMAC Physical Function: LS Mean change from Baseline,[3]; 5 mg SC,−2.36
same,overall safety and tolerability,[4],generally safe and well-tolerated
